The values below come from article PMC9820082, “Synthesis of 9-Hydroxy-1H-Benzo[f]chromene Derivatives with Effective Cytotoxic Activity on MCF7/ADR, P-Glycoprotein Inhibitors, Cell Cycle Arrest and Apoptosis Effects” (International Journal of Molecular Sciences, 2022).

The test system of experiment [1] is Adriamycin (ADR)-resistant human breast cancer cells (MCF-7/ADR). The experiment is described as follows: Cytotoxicity against MCF-7/ADR cells. Type of experiment: cell-based. The note with it: 24 h exposure, mean ± standard error. As for the experimental part:
Three human cancer cell lines, PC-3 (human prostate adenocarcinoma, metastatic), […], were used to test the anti-proliferative activity of β-enaminonitrile (4a–p) using the MTT colorimetric assay at concentrations ranging from 0–100 μM. The representative active cytotoxic substances 4a, 4c, 4d, 4e, 4g, 4i, 4k and 4o were also tested against two normal cell lines, human fetal lung (HFL-1) and human diploid fibroblasts (WI-38), as well as Adriamycin (ADR)-resistant human breast cancer cells (MCF-7/ADR). The reference cytotoxic agents, Vinblastine and Doxorubicin, were used in the tests.
The tumor cell lines MCF-7, HepG-2, PC-3 MCF-7/ADR, HFL-1 and (WI-38) were obtained from the American Type Culture Collection (ATCC, Rockville, MD, USA). The cells were grown on RPMI-1640 medium supplemented with 10% inactivated fetal calf serum and 50 µg/mL gentamycin. The cells were maintained at 37 ^οC in a humidified atmosphere with 5% CO2 and were subcultured two to three times a week.
The cytotoxic activity was appraised using the 3-(4,5-dimethylthiazol-2-yl)-2,5-diphenyltetrazolium bromide (MTT) colorimetric assay for the antitumor cell lines, as reported previously, and the ELISA assay for MCF-7/ADR [69].

In experiment [2] the target is T1, P-gp activity (efflux function) (Homo sapiens, UniProt P08183).
T1 construct: measuring intracellular accumulation of Rhodamine 123 in MCF-7/ADR cells; endogenous in cells; host or cells: MCF-7/ADR (Adriamycin-resistant human breast cancer cells)
T1 sequence (P08183 whole entry): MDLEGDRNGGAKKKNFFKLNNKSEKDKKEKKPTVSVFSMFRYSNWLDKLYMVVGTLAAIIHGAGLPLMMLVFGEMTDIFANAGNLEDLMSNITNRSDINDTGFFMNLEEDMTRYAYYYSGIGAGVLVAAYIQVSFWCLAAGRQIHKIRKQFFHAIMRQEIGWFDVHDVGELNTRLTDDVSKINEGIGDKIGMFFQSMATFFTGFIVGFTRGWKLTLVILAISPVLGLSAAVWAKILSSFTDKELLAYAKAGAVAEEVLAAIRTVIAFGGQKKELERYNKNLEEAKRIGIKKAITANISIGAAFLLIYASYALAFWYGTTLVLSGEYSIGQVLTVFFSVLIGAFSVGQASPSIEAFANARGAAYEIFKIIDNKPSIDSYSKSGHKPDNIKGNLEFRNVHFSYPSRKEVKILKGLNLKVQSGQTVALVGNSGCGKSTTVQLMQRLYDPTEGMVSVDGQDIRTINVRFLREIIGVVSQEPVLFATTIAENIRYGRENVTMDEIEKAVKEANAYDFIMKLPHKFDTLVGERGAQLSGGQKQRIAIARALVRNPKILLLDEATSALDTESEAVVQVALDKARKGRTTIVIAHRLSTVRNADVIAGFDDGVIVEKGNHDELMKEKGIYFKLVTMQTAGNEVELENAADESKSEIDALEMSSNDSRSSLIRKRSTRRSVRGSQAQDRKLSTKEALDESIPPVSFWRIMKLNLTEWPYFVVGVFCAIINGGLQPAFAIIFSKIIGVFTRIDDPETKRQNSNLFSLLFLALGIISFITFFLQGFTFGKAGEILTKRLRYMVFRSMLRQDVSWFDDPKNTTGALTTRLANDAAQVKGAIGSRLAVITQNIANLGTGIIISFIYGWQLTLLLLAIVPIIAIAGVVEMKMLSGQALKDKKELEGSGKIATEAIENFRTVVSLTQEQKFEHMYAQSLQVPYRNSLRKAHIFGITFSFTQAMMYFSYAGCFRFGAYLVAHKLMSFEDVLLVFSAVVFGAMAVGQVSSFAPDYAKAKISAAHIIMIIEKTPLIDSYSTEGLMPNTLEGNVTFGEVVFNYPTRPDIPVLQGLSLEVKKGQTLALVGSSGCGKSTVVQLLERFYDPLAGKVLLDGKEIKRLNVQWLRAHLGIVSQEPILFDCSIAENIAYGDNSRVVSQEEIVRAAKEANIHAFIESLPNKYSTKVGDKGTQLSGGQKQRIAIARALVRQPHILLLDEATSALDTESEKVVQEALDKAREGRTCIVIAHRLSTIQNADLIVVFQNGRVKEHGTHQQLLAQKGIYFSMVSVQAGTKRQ
Kind of experiment: Rhodamine 123 accumulation assay in MCF-7/ADR cells. Conditions: 4 h with compound then 5.25 μM Rho123 for 30 min. The experiment is classed as cell-based. As for the experimental part:
Furthermore, the reversion of P-gp-mediated multidrug resistance could be achieved by the down-regulation of P-gp expression and/or P-gp efflux function inhibition.
Briefly, resistant cancer cells were harvested, washed twice and counted. […] of each well was measured using a Spectramax Gemini fluorescence microplate reader (Molecular Devices, Sunnyvale, CA, USA). The total content of Rhodamine in each sample was determined by comparison with a Rhodamine standard curve.

A further experiment has as its system MCF-7/ADR cells. Kind of experiment: Cell cycle analysis by flow cytometry (PI staining). Type of experiment: cell-based, human. Conditions: IC50 values, 24 h. The source says:
Cancer cells undergo unscheduled cell divisions by the down-regulation of the four cell cycle stages (G1, S, G2 and M); therefore, the development of anticancer agents targeting cell cycle arrest represents an important therapeutic intervention. P-gp breast cancer resistance proteins (BCRP) inhibit the action of anticancer drugs on cell cycle arrest by preventing intercellular drug accumulation. By using flow cytometry and the FACS Calibers, it was possible to examine how the potent-produced compounds (4a, 4c, 4e, 4g and 4i) affected the regulation of cell cycle progression in MCF-7/ADR cells (Becton Dickinson). […] The outcomes of the cell cycle progression give three different results showing compounds with cell cyclic arrest at the G1 phase (4d and 4e), while there were other compounds at the S phase (4a and 4c) and a final compound with cell cycle arrest at both of the G1/S phases (4g and 4i). […] According to the cell cycle analysis, the tested derivatives considerably stopped the MCF-7/ADR cancer cells in the G1/S phase.
Figure 6 Effects of compounds 4a, 4c–4e, 4g and 4i on the cell cycle phases of MCF-7/ADR cells. […] Their DNA content was analyzed using fluorescence flow cytometry. […] The data are expressed as the mean ± SD of three independent experiments in triplicate. Significances are shown in comparison to control cells (* p < 0.001). TEXT PRINTED IN THE PICTURE: (a) DOX.: %DIP G1 63.03% (MCF7/ADR); %DIP G2/M 13.09% (MCF7/ADR); %DIP S 23.88% (MCF7/ADR) | (a) 4a: %DIP G1 41.63% (MCF7/ADR); %DIP G2/M 5.55% (MCF7/ADR); %DIP S 52.82% (MCF7/ADR) | (a) 4c: %DIP G1 52.13% (MCF7/ADR); %DIP G2/M 9.91% (MCF7/ADR); %DIP S 37.96% (MCF7/ADR) | (a) 4d: %DIP G1 59.42% (MCF7/ADR); %DIP G2/M 13.75% (MCF7/ADR); %DIP S 26.83% (MCF7/ADR) | (a) 4e: %DIP G1 67.32% (MCF7/ADR); %DIP G2/M 8.6% (MCF7/ADR); %DIP S 24.08% (MCF7/ADR) | (a) 4g: %DIP G1 59.37% (MCF7/ADR); %DIP G2/M 3.67% (MCF7/ADR); %DIP S 36.96% (MCF7/ADR) | (a) 4i: %DIP G1 5.68% (MCF7/ADR); %DIP G2/M 57.61% (MCF7/ADR); %DIP S 36.71% (MCF7/ADR) DOUBTS OF THE COPYIST ABOUT THIS PICTURE: The print in the histogram insets of panel (a) is very small and blurred; 3, 5, 6, 8 and 9 cannot be told apart with certainty in any value, so all values below are best readings. / DOX., %DIP G1 63.03%: 3s may be 8s / DOX., %DIP G2/M 13.09%: 9 may be 8; 3 may be 5 / DOX., %DIP S 23.88%: 8s may be 3 or 6 / 4a, %DIP G1 41.63%: 6 or 8; 3 or 8 / 4a, %DIP G2/M 5.55%: 5s may be 6 or 3 / 4a, %DIP S 52.82%: 8 may be 3 or 6 / 4c, %DIP G1 52.13%: 3 or 8 / 4c, %DIP G2/M 9.91%: 9s may be 8 / 4c, %DIP S 37.96%: 9 or 8; 6 or 8 / 4d, %DIP G1 59.42%: 9 or 8 / 4d, %DIP G2/M 13.75%: 3 or 8; 5 or 6 / 4d, %DIP S 26.83%: 6, 8 and 3 uncertain / 4e, %DIP G1 67.32%: 6 or 8; 3 or 8 / 4e, %DIP G2/M 8.6%: 8 and 6 uncertain; a further digit may be missing / 4e, %DIP S 24.08%: 8 may be 3 or 6 / 4g, %DIP G1 59.37%: 9 or 8; 3 or 8 / 4g, %DIP G2/M 3.67%: 3 or 8; 6 or 8 / 4g, %DIP S 36.96%: 3, 6 and 9 uncertain / 4i, %DIP G1 5.68%: 5, 6 and 8 uncertain; the value seems to be printed against G1 although a leading digit could be hidden / 4i, %DIP G2/M 57.61%: 5 or 6; 6 or 8 / 4i, %DIP S 36.71%: 3 or 8; 6 or 8 / The untreated control (Cont.) also carries printed percentages (%DIP G1 55.38%, %DIP G2/M 15.01%, %DIP S 29.61%) but was left out because it is not a substance.
In general terms: A flow cytometer gives signals particle by particle.

[3] abbreviates: Homo sapiens, NCI/ADR-RES, 24 h.

Consider `N#CC1=C(N)Oc2ccc3ccc(O)cc3c2C1c1ccc(F)cc1F` (stereo not shown) [4a, 3-Amino-1-(2,4-Difluorophenyl)-9-Hydroxy-1H-Benzo[f]chromene-2-Carbonitrile], for which the IC50 was 10.8 ± 0.4 µM in experiment [1] (setting [3]) and 23.3 µM in experiment [2]. Further, the “cell cycle arrest phase” value in the experiment with MCF-7/ADR cells is reported as “S phase”.

`N#CC1=C(N)Oc2ccc3ccc(O)cc3c2C1c1cc(Cl)ccc1Cl` (stereo not shown) [4e, 3-Amino-1-(2,5-Dichlorophenyl)-9-Hydroxy-1H-Benzo[f]chromene-2-Carbonitrile]: the IC50 in experiment [1] (setting [3]) is 10 ± 0.3 µM; in experiment [2] it was 14.6 µM. Also, the “cell cycle arrest phase” value in the experiment with MCF-7/ADR cells was “G1 phase”.

As to `N#CC1=C(N)Oc2ccc3ccc(O)cc3c2C1c1ccc(Cl)cc1Cl` (stereo not shown) [4d, 3-Amino-1-(2,4-Dichlorophenyl)-9-Hydroxy-1H-Benzo[f]chromene-2-Carbonitrile], the values for the IC50 in experiment [1] (setting [3]) and in experiment [2] were 10.4 ± 0.3 µM and 46.6 µM, respectively. Besides, the “cell cycle arrest phase” value in the experiment on MCF-7/ADR cells is given as “G1 phase”.

With `N#CC1=C(N)Oc2ccc3ccc(O)cc3c2C1c1cccc(Cl)c1Cl` (stereo not shown) [4c, 3-Amino-1-(2,3-Dichlorophenyl)-9-Hydroxy-1H-Benzo[f]chromene-2-Carbonitrile], the IC50 was 12.4 ± 0.1 µM in experiment [1], 8.6 to 11.5 µM in experiment [1] (setting [3]) and 28.7 µM in experiment [2]. Further, the “cell cycle arrest phase” value in the experiment on MCF-7/ADR cells is on record as “S phase”.

Take `N#CC1=C(N)Oc2ccc3ccc(O)cc3c2C1c1ccc(Cl)c(Cl)c1` (stereo not shown) [4g, 3-Amino-1-(3,4-Dichlorophenyl)-9-Hydroxy-1H-Benzo[f]chromene-2-Carbonitrile]: the IC50 in experiment [1] (setting [3]) worked out at 11.5 ± 0.4 µM; in experiment [2] it was 36.7 µM. Further, in the experiment with MCF-7/ADR cells, the “cell cycle arrest phase” value is given as “G1/S phases”.

For `N#CC1=C(N)Oc2ccc3ccc(O)cc3c2C1c1cc(Br)cc(Br)c1` (stereo not shown) [4i, 3-Amino-1-(3,5-Dibromophenyl)-9-Hydroxy-1H-Benzo[f]chromene-2-Carbonitrile], the IC50 in experiment [1] (setting [3]) is 8.6 ± 0.7 µM; in experiment [2], 55.3 µM. In addition, the “cell cycle arrest phase” value in the experiment with MCF-7/ADR cells was “G1/S phases”.

What is called IC50 is the point on the concentration scale where inhibition reaches its midpoint.
